Experiments:
bFGF-stimulated HUVECs = experiment: bFGF-induced proliferation of human endothelial cells (HUVEC proliferation assay); format: cell-based; conditions: 20 ng/ml bFGF, 48 hours, read-out: IC50 of Antiproliferative Effect
From the text: Proliferation assays familiar to those skilled in the art using human umbilical vein endothelial cells (HUVECs) were employed in order to determine the effect of various antibiotics on the growth of bFGF-stimulated HUVECs.
The materials for this experiments included endothelial cells (HUVECS) and media for their proliferation (Media 200, fetal bovine serum (FBS), gelatin, bFGF) (Paragon Bioservices, Baltimore, Md.), and Cell Titer 96 for detection of cell proliferation (Paragon Bioservices, Baltimore, Md.). Antibiotics aurovertin B, citreoviridin, oligomycin A, oligomycin B, oligomycin C, and efrapeptin D were all obtained from Sigma Chemical Company (St. Louis, Mo.).
HUVECs were routinely cultured to confluency in Media 200 containing 10% FBS. The cells were then trypsinized and plated in a 96-well plate pre-coated with 1% gelatin at 5000 cells per well per 100 μL Media 200 containing 2% FBS. The cells were allowed to adhere for 24 hours. Subsequently, the media were aspirated and fresh Media 200 containing 0.5% FBS were added to the wells. Addition of various concentrations of antibiotics in the presence and absence of 20 ng/ml bFGF followed. The assay plates were incubated at 37° C., 5% CO2 for 48 hours. At the end of the incubation period, cell proliferation was determined using cell counting (Cell Counter Model Z1, Coulter Incorporation, Miami, Fla.) or spectrophotometry. In the later case, the assay plates were incubated with Cell Titer 96 for 2 hours and the absorbance was recorded at 490 nm.

VEGF-stimulated HUVECs = experiment: VEGF-induced migration of human endothelial cells (modified Boyden chamber); format: cell-based; conditions: 5 ng/ml VEGF, six hours
From the text: A migration assay familiar to those skilled in the art using vascular endothelial growth factor (VEGF)-stimulated HUVECs was employed to determine the effect of aurovertin B on endothelial cell migration.
The endothelial cells were routinely cultured as previously described.
Modified Boyden chambers in a 48-well format consisting of upper and lower wells separated by an 8-microns pore polycarbonate filter coated with collagen were used to study VEGF-induced migration of HUVECs (Paragon Bioservices, Baltimore, Md.). The endothelial cells were added to the lower wells and the migrating factor (5 ng/ml VEGF) was added to the upper wells. HUVECs were allowed to migrate from the lower to the upper wells for six hours at 37° C., 5% CO2. At the end of the incubation period, the filters were removed and washed gently. The cells on the filters were then fixed, stained with hematoxylin, and counted with a light microscope. The values obtained represent the mean of ten fields.

[1] = test system: murine B16F10 melanoma tumors; experiment: Growth of murine B16F10 melanoma tumors in C57 mice; format: in vivo; conditions: 2 mg/kg i.p. every day for 9 days
Procedure: The effect of aurovertin B and efrapeptin D on the growth of murine B16F10 melanoma tumors (ATCC, Rockville, Md.) was investigated. Groups of four C57 mice (The Jackson Laboratory, BarHarbor, Me.) were injected subcutaneously with 5×10^4 B16F10 cells (The Jackson Laboratory, BarHarbor, Me.). The mice were subsequently treated i.p. with 2 mg/kg aurovertin B, 0.4 mg/kg efrapeptin D, or vehicle control. The treatment was initiated three days after the tumor inoculation and continued every day for 9 days. The tumor growth was recorded at the end of the experiment.

SMILES: CC[C@H]1/C=C/C=C/C[C@@H](C)[C@H](O)[C@@](C)(O)C(=O)[C@@H](C)[C@H](O)[C@@H](C)C(=O)[C@@H](C)[C@H](O)[C@@H](C)/C=C/C(=O)O[C@@H]2[C@H](C)[C@H](CC1)O[C@@]1(O[C@@H](C[C@@H](C)O)[C@@H](C)CC1=O)[C@H]2C [Oligomycin B, oligomycin B]
- IC50 (bFGF-stimulated HUVECs): 5 µM

SMILES: CC[C@@H]1/C=C/C=C/C[C@H](C)[C@H](O)[C@](C)(O)C(=O)[C@H](C)[C@@H](O)[C@H](C)C(=O)[C@H](C)[C@@H](O)[C@H](C)/C=C/C(=O)O[C@H]2[C@@H](C)[C@@H](CC1)O[C@@]1(CC[C@@H](C)[C@@H](C[C@H](C)O)O1)[C@@H]2C [Oligomycin A, oligomycin A]
- IC50 (bFGF-stimulated HUVECs): 5 µM

SMILES: CC[C@H]1O[C@]2(C)[C@H](OC(C)=O)[C@@]1(C)O[C@@H](/C=C/C=C/C=C/c1oc(=O)cc(OC)c1C)[C@@H]2O [Aurovertin, aurovertin B]
- IC50 (bFGF-stimulated HUVECs): 10 µM
- inhibition of VEGF-induced migration of HUVECs (in words) (VEGF-stimulated HUVECs): inhibited VEGF-induced migration of HUVECs
- mice that exhibited measurable, growing tumors at the end of the treatment [1]: 50%
- Number of mice that developed measurable tumors/Number of mice injected with tumor cells ([1]; started three days after tumor inoculation): 2/4

SMILES: CC[C@@H]1C=CC=CC[C@H](C)[C@@H](O)[C@@H](C)C(=O)[C@H](C)[C@@H](O)[C@H](C)C(=O)[C@H](C)[C@@H](O)[C@H](C)C=CC(=O)O[C@H]2[C@@H](C)[C@@H](CC1)O[C@@]1(CC[C@@H](C)[C@@H](C[C@H](C)O)O1)[C@@H]2C [Oligomycin C, oligomycin C]
- IC50 (bFGF-stimulated HUVECs): 5 µM

SMILES: COc1cc(=O)oc(/C=C/C=C/C=C/C(C)=C/[C@@]2(C)O[C@H](C)[C@](C)(O)[C@H]2O)c1C [Citreoviridin, citreoviridin]
- IC50 (bFGF-stimulated HUVECs): 10 µM
